Source: patent US20080090278A1, “METHOD FOR ENHANCING STABILITY OF A COMPOSITION COMPRISING SOLUBLE GLUCOSE DEHYDROGENASE (GDH)” (TOYO BOSEKI KABUSHIKI KAISHA, priority 2006, published 2008)

What was measured:
Assay type in all cases: physicochemical
[1] = tested on: recombinant FAD-GDH (rAO-FAD-GDH) derived from Aspergillus oryzae; test: Thermal stabilization effect of stabilizing agents on rAO-FAD-GDH in solution (Examples 3-6); conditions: for GDH Residual activity ratio (%) after treatment at 50° C., 15 min: final concentration BSA 2.5%, serine 10%, alone or combined; for thermal stabilization effect on FAD-GDH (in words): 50° C. for 15 minutes, Example 3
Experimental: Enhancement of the thermal stability referred to herein means increasing of a residual ratio (%) of the GDH enzyme kept after giving the treatment with heat at a certain temperature for a certain time period to the composition comprising the GDH enzyme. In the present invention, the activity in the sample stored at 4° C. which is nearly completely kept is made 100%, this is compared with the activity in the GDH solution after giving the treatment with heat at a certain-temperature for a certain time period, and the residual ratio of the enzyme is calculated.
In the method for measuring the activity described in the method for measuring the GDH enzyme activity described later, an activity value (a) of GDH in the solution stored at 4° C. and an activity value (b) of GDH after giving the treatment with heat at a certain temperature for a certain time period were measured, a relative value[(b)/(a)×100] when the activity value (a) was made 100 was calculated. This relative value was made the residual ratio (%). Comparing the presence with the absence of the added compound, when the residual ratio was increased by the addition of the compound, it was determined that the thermal stability was enhanced.
In the present invention, the activity of FAD-dependent GDH is measured as follows.
The reaction-reagent is made by mixing 15.6 mL of the PIPES buffer, 0.2 mL of the DCPIP solution and 4 mL of the D-glucose solution.
(§1) The reaction reagent (3 mL) is preliminarily heated at 37° C. for 5 minutes. The GDH solution (0.1 mL) is added and gently mixed, subsequently the change of absorbance at 600 nm is recorded for 5 minutes using the spectrophotometer controlled to 37° C. using water as the control, and the change of absorbance per one minute (ΔODTEST) is calculated from the linear portion of the record. The solvent in which GDH will be dissolved in place of the blinded GDH solution is added to the reagent mixture, and the change of absorbance (ΔODBLANK) per one minute is measured. The GDH activity is calculated from these values according to the following formula. One unit (U) in the GDH activity is defined as the amount of the enzyme which reduces […] DCPIP for one minute in the presence of 200 mM D-glucose. Activity (U/mL)=[−(ΔODTEST−ΔODBLANK)×3.0×dilution scale]/(16.3×0.1×1.0) In the above formula, 3.0 represents a liquid amount (mL) of the reaction reagent+the enzyme solution, 16.3 represents a millimolar molecular absorbance coefficient (cm^2/μmol) in the condition for measuring this enzyme, 0.1 represents the liquid amount of the enzyme solution (mL) and 1.0 represents a light path length (cm) of the cell.
The study was performed in accordance with the method for measuring the FAD-GDH activity in Test Example 1 described above.
First, 50 mL of an enzyme solution obtained by dissolving the recombinant FAD-GDH (rAO-FAD-GDH)-derived from Aspergillus oryzae obtained in Example 1 at about 2 U/mL in an enzyme dilution solution (50 mM potassium phosphate buffer, pH 5.5, 0.1% Triton X-100) was prepared. Two tubes in which each stabilizing agent described in Table 1 had been added at each final concentration to 0.9 mL of this enzyme solution to make the total volume 1.0 mL were prepared.
(§2) In two tubes, one tube was stored at −4° C. and another tube was treated at 50° C. for 15 minutes. Then, the FAD-GDH activity in each tube was measured. The enzyme activity in the tube stored at 4° C. was made 100, and comparing with it, the activity value after being treated at 50° C. for 15 minutes was calculated as the residual activity ratio (%).
The method was in accordance with Example 3 described above.
The methods were in accordance with Example 3 above.

[2] = tested on: recombinant FAD-GDH preparation (rAO-FAD-GDH) derived from Aspergillus oryzae; test: Storage stability of freeze-dried (powdered) rAO-FAD-GDH with stabilizing agents (Example 8)
Experimental: as §1
The study was performed using the recombinant FAD-GDH preparation (rAO-FAD-GDH) derived from Aspergillus oryzae obtained in Example 1 in accordance with the method for measuring the FAD-GDH activity in Test Example 1 above. The amount of the protein which occupied in the FAD-GDH enzyme solution was measured, and 1 mL of the solution in which the stabilizing agent corresponding to 60% or 30% relative to this had been dissolved therein was prepared.
Several vials in which 0.2 mL of the enzyme solution containing each stabilizing agent had been correctly dispensed were prepared. As the control, the vials in which the stabilizing agent had not been added was prepared. The prepared vials were subjected to vacuum freeze-dry (FDR) to completely evaporate the water. Then, only two samples in which the same stabilizing agent had been added were subjected to the measurement of the activity. Meanwhile, the remaining vials were treated at 25° C. at a humidity of 70% for several hours, and then stored at 37° C. for one week. Subsequently, the residual activity was measured. The residual activity ratio (%) was calculated by making the average activity immediately after FDR 100% and measuring the average activity of the samples after storing at 37° C.

[3] = tested on: recombinant FAD-GDH (rAT-FAD-GDH) derived from Aspergillus terreus; test: Thermal stabilization effect of stabilizing agents on rAT-FAD-GDH in solution (Example 9); conditions: for Residual activity ratio (%) / GLD activity value (U/ml) 50° C., 15 min: Table 10, buffer 50 mM K-PB, stabilizer at each final concentration described in Table 1; for Residual activity ratio (%): 50° C., 15 min versus 4° C.; for thermal stabilization effect on FAD-GDH (in words): rAT-FAD-GDH, 50° C. for 15 minutes, Example 9
Experimental: as §1, with “D-glucose.” for “D-glucose. Activity (U/mL)=[−(ΔODTEST−ΔODBLANK)×3.0×dilution scale]/(16.3×0.1×1.0) In the above formula, 3.0 represents a liquid amount (mL) of the reaction reagent+the enzyme solution, 16.3 represents a millimolar molecular absorbance coefficient (cm^2/μmol) in the condition for measuring this enzyme, 0.1 represents the liquid amount of the enzyme solution (mL) and 1.0 represents a light path length (cm) of the cell.”
Two tubes in which each stabilizing agent described in Table 1 had been added at each final concentration to 0.9 mL of this enzyme solution to make the total volume 1.0 mL were prepared.
as §2, with “4°” for “−4°”

[4] = stabilizer final concentration 1%, rAO-FAD-GDH about 2 U/mL, 50 mM potassium phosphate buffer pH 5.5, 0.1% Triton X-100, 4° C. sample = 100

Row | thermal stabilization effect on FAD-GDH (in words) ([1]; rAO-FAD-GDH) | Residual activity ratio (%) after treatment at 50° C., 15 min [1, 4] | Residual activity ratio (%) [3] | thermal stabilization effect on FAD-GDH (in words) [3] | SMILES | GLD activity value (U/ml) 50° C., 15 min [3] | also measured
1 | high effect | 27.0% | 3.0% | high effect | N[C@@H](CO)C(=O)O [L-serine] | 0.078 U/ml | GDH Residual activity ratio (%) after treatment at 50° C., 15 min ([1]; Table 3): 33%; GDH Residual activity ratio (%) after treatment at 50° C., 15 min ([1]; Table 3 second column): 11.5%; storage stabilization effect on the powdered enzyme (in words) ([2]; Example 8, Tables 7 and 8): enhance the stability; GDH activity (kU/vial) Immediately after pulverization ([2]; Table 7, stabilizer 60% relative to FAD-GDH protein, vacuum freeze-dry): 19.8 kU/vial; GDH activity Residual ratio (%) ([2]; Table 7, stabilizer 60%, 70% humidity, 25° C., 24 h, then 37° C. for 1 week, activity immediately after FDR = 100%): 41.3%; GDH activity (kU/vial) After 1 week at 37° C. ([2]; Table 7, stabilizer 60%, after treatment at 70% humidity, 25° C., 24 h, then 37° C. for 1 week): 8.2 kU/vial
2 | high effect |  |  | high effect | O=C(O)[C@@H]1CCCN1 [proline] |  | 
3 | high effect | 25.2% | 3.0% | high effect | CNCC(=O)O [Sarcosine] | 0.081 U/ml | 
4 | high effect |  |  | high effect | O=C(O)CC(=O)O [Malonic acid] |  | 
5 |  | 24.8% | 2.8% |  | O=C(O)[C@H]1CCCN1 [D-proline] | 0.079 U/ml | 
6 |  |  | 1.6% |  | CC(C)[C@H](N)C(=O)O [L-valine] | 0.043 U/ml | Residual activity ratio (%) after treatment at 50° C., 15 min ([1]; stabilizer final concentration 0.50%, rAO-FAD-GDH, pH 5.5): 25.5%
7 |  | 0.0% | 0.2% |  | O=C(O)C1OC(O)C(O)C(O)C1O [D-a-galacturonic acid] | 0.004 U/ml | 
8 | high effect | 68.5% | 18.5% | high effect | O=C[C@H](O)[C@@H](O)[C@H](O)CO [D-(+)-xylose] | 0.516 U/ml | 
9 | high effect | 23.0% | 2.5% | high effect | O=C[C@@H](O)[C@H](O)[C@H](O)CO [D-(−)-arabinose] | 0.069 U/ml | 
10 |  |  | 2.3% |  | N[C@H](Cc1ccccc1)C(=O)O [D-phenylalanine] | 0.062 U/ml | Residual activity ratio (%) after treatment at 50° C., 15 min ([1]; stabilizer final concentration 0.10%, rAO-FAD-GDH, pH 5.5): 23.6%

Second part, the compound before the results:

Row | SMILES | thermal stabilization effect on FAD-GDH (in words) ([1]; rAO-FAD-GDH) | Residual activity ratio (%) after treatment at 50° C., 15 min [1, 4] | Residual activity ratio (%) [3] | thermal stabilization effect on FAD-GDH (in words) [3] | GLD activity value (U/ml) 50° C., 15 min [3] | also measured
11 | OC[C@H]1O[C@@](CO)(O[C@H]2O[C@H](CO)[C@@H](O)[C@H](O)[C@H]2O)[C@@H](O)[C@@H]1O [Sucrose] | high effect | 44.1% | 2.1% | high effect | 0.058 U/ml | 
12 | N[C@@H](CC(=O)O)C(=O)O [L-aspartic acid] |  | 12.2% | 0.2% |  | 0.005 U/ml | 
13 | O=C([O-])CC(O)(CC(=O)[O-])C(=O)[O-].[Na+].[Na+].[Na+] [Trisodium citrate] | high effect |  |  | high effect |  | 
14 | OC[C@H]1O[C@@H]2O[C@H]3[C@H](O)[C@@H](O)[C@@H](O[C@H]4[C@H](O)[C@@H](O)[C@@H](O[C@H]5[C@H](O)[C@@H](O)[C@@H](O[C@H]6[C@H](O)[C@@H](O)[C@@H](O[C@H]7[C@H](O)[C@@H](O)[C@@H](O[C@H]1[C@H](O)[C@H]2O)O[C@@H]7CO)O[C@@H]6CO)O[C@@H]5CO)O[C@@H]4CO)O[C@@H]3CO [a-cyclodextrin] |  | 44.1% | 1.5% |  | 0.044 U/ml | 
15 | OC[C@H]1O[C@@](CO)(O[C@H]2O[C@H](CO)[C@@H](O)[C@H](O)[C@H]2O)[C@@H](O[C@H]2O[C@H](CO)[C@@H](O)[C@H](O)[C@H]2O)[C@@H]1O [D-(+)-melezitose] | high effect | 44.7% | 6.9% | high effect | 0.193 U/ml | 
16 | O=C([O-])[C@H](O)[C@@H](O)[C@H](O)[C@H](O)CO.[Na+] [sodium gluconate] | high effect | 33.5% | 3.9% | high effect | 0.111 U/ml | 
17 | O=C(O)CCCC(=O)O [Glutaric acid] | high effect |  |  | high effect |  | 
18 | N.N.O=S(=O)(O)O [Ammonium sulfate] | high effect |  |  | high effect |  | 
19 | NCCS(=O)(=O)O [Taurine] | high effect | 23.8% | 3.2% | high effect | 0.081 U/ml | 
